# Results published in ChEMBL document CHEMBL4219183, “Novel purine benzimidazoles as antimicrobial agents by regulating ROS generation and targeting clinically resistant Staphylococcus aureus DNA groove” (Bioorg Med Chem Lett, 2018).
# Columns and labels:
# Assay type in all cases: functional
# Candida albicans [1] = assay: Antifungal activity against Candida albicans ATCC 90023 after 24 hrs by two fold serial dilution method; details: ATCC 90023, 24 h
# Staphylococcus aureus [2] = assay: Antibacterial activity against methicillin-resistant Staphylococcus aureus N315 after 24 hrs by two fold serial dilution method; details: N315, 24 h
# Aspergillus fumigatus = assay: Antifungal activity against Aspergillus fumigatus after 24 hrs by two fold serial dilution method
# Enterococcus faecalis = assay: Antibacterial activity against Enterococcus faecalis after 24 hrs by two fold serial dilution method
# Staphylococcus aureus [3] = assay: Antibacterial activity against Staphylococcus aureus ATCC 29213 after 24 hrs by two fold serial dilution method; details: ATCC 29213, 24 h
# Candida parapsilosis = assay: Antifungal activity against Candida parapsilosis ATCC 22019 after 24 hrs by two fold serial dilution method; details: ATCC 22019, 24 h
# Acinetobacter baumannii = assay: Antibacterial activity against Acinetobacter baumannii after 24 hrs by two fold serial dilution method
# Escherichia coli [4] = assay: Antibacterial activity against Escherichia coli ATCC 25922 after 24 hrs by two fold serial dilution method; details: ATCC 25922, 24 h
# Escherichia coli [5] = assay: Antibacterial activity against Escherichia coli after 24 hrs by two fold serial dilution method
# Candida albicans [6] = assay: Antifungal activity against Candida albicans after 24 hrs by two fold serial dilution method
# Staphylococcus aureus [7] = assay: Antibacterial activity against Staphylococcus aureus ATCC 25923 after 24 hrs by two fold serial dilution method; details: ATCC 25923, 24 h
# Pseudomonas aeruginosa [8] = assay: Antibacterial activity against Pseudomonas aeruginosa ATCC 27853 after 24 hrs by two fold serial dilution method; details: ATCC 27853, 24 h
# Pseudomonas aeruginosa [9] = assay: Antibacterial activity against Pseudomonas aeruginosa after 24 hrs by two fold serial dilution method
# Staphylococcus aureus [10] = assay: Antibacterial activity against Staphylococcus aureus after 24 hrs by two fold serial dilution method
# Klebsiella pneumoniae = assay: Antibacterial activity against Klebsiella pneumoniae after 24 hrs by two fold serial dilution method
# Candida tropicalis = assay: Antifungal activity against Candida tropicalis after 24 hrs by two fold serial dilution method
Compound,MIC80 (Candida albicans [1]),MIC (Staphylococcus aureus [2]),MIC80 (Aspergillus fumigatus),MIC (Enterococcus faecalis),MIC (Staphylococcus aureus [3]),MIC80 (Candida parapsilosis),MIC (Acinetobacter baumannii),MIC (Escherichia coli [4]),MIC (Escherichia coli [5]),MIC80 (Candida albicans [6]),MIC (Staphylococcus aureus [7]),MIC (Pseudomonas aeruginosa [8]),MIC (Pseudomonas aeruginosa [9]),MIC (Staphylococcus aureus [10]),MIC (Klebsiella pneumoniae),MIC80 (Candida tropicalis)
CCCCCCCCCCCCCCCCn1c(Cn2cnc3c(N4CCOCC4)ncnc32)nc2ccccc21,512 µg/mL,512 µg/mL,256 µg/mL,32 µg/mL,256 µg/mL,128 µg/mL,256 µg/mL,256 µg/mL,512 µg/mL,128 µg/mL,256 µg/mL,256 µg/mL,512 µg/mL,64 µg/mL,128 µg/mL,128 µg/mL
c1nc(N2CCOCC2)c2nc[nH]c2n1,256 µg/mL,512 µg/mL,256 µg/mL,128 µg/mL,512 µg/mL,512 µg/mL,256 µg/mL,256 µg/mL,256 µg/mL,256 µg/mL,512 µg/mL,256 µg/mL,256 µg/mL,256 µg/mL,128 µg/mL,256 µg/mL
Clc1cccc(Cn2c(Cn3cnc4c(N5CCOCC5)ncnc43)nc3ccccc32)c1,128 µg/mL,512 µg/mL,256 µg/mL,128 µg/mL,128 µg/mL,512 µg/mL,256 µg/mL,256 µg/mL,256 µg/mL,512 µg/mL,128 µg/mL,256 µg/mL,512 µg/mL,256 µg/mL,128 µg/mL,128 µg/mL
c1ccc2c(c1)ncn2CCn1cnc2c(N3CCOCC3)ncnc21,128 µg/mL,256 µg/mL,256 µg/mL,128 µg/mL,256 µg/mL,128 µg/mL,256 µg/mL,128 µg/mL,256 µg/mL,256 µg/mL,256 µg/mL,256 µg/mL,128 µg/mL,256 µg/mL,256 µg/mL,256 µg/mL
CCCCCCn1c(Cn2cnc3c(N4CCCCC4)ncnc32)nc2ccccc21,32 µg/mL,64 µg/mL,128 µg/mL,128 µg/mL,512 µg/mL,64 µg/mL,64 µg/mL,16 µg/mL,256 µg/mL,64 µg/mL,64 µg/mL,128 µg/mL,128 µg/mL,16 µg/mL,64 µg/mL,64 µg/mL
CCCCn1c(Cn2cnc3c(N4CCOCC4)ncnc32)nc2ccccc21,128 µg/mL,512 µg/mL,256 µg/mL,256 µg/mL,128 µg/mL,256 µg/mL,256 µg/mL,128 µg/mL,64 µg/mL,256 µg/mL,256 µg/mL,128 µg/mL,256 µg/mL,256 µg/mL,256 µg/mL,128 µg/mL
C#CCn1c(Cn2cnc3c(N4CCOCC4)ncnc32)nc2ccccc21,256 µg/mL,512 µg/mL,512 µg/mL,256 µg/mL,256 µg/mL,256 µg/mL,256 µg/mL,512 µg/mL,128 µg/mL,256 µg/mL,128 µg/mL,128 µg/mL,256 µg/mL,128 µg/mL,128 µg/mL,128 µg/mL
Clc1ccc(Cn2c(Cn3cnc4c(N5CCOCC5)ncnc43)nc3ccccc32)cc1,128 µg/mL,512 µg/mL,256 µg/mL,256 µg/mL,256 µg/mL,512 µg/mL,512 µg/mL,256 µg/mL,256 µg/mL,256 µg/mL,128 µg/mL,128 µg/mL,512 µg/mL,512 µg/mL,256 µg/mL,64 µg/mL
Fc1cccc(Cn2c(Cn3cnc4c(N5CCOCC5)ncnc43)nc3ccccc32)c1,32 µg/mL,512 µg/mL,256 µg/mL,128 µg/mL,64 µg/mL,128 µg/mL,256 µg/mL,256 µg/mL,256 µg/mL,256 µg/mL,32 µg/mL,128 µg/mL,256 µg/mL,256 µg/mL,16 µg/mL,128 µg/mL
CCn1cc(C(=O)O)c(=O)c2cc(F)c(N3CCNCC3)cc21 [NORFLOXACIN],,> 512 µg/mL,,256 µg/mL,8 µg/mL,,32 µg/mL,1 µg/mL,512 µg/mL,,32 µg/mL,512 µg/mL,4 µg/mL,64 µg/mL,> 512 µg/mL,
OC(Cn1cncn1)(Cn1cncn1)c1ccc(F)cc1F [FLUCONAZOLE],1 µg/mL,,256 µg/mL,,,2 µg/mL,,,,64 µg/mL,,,,,,256 µg/mL
